Read-outs that look alike come from different tables or passages of the source.
Tests used:
[1] = molecular target: recombinant RORγ Ligand Binding Domain (LBD) protein (Homo sapiens (Human), UniProt P51449); test: Radio-Ligand RORγ Binding Assay (Assay 1); details: read-out: RORγ Binding Ki Range* (nM) (Assay 1)
Protocol: Radio-Ligand ROR ? Binding Assay (Assay 1)
The plate was shaken at 700 rpm for 20 min and incubated for 10 min at rt, after which 40 μL of poly-Lys YSi SPA beads (PerkinElmer, Cat. # RPNQ0010) were added to achieve 50 μg of the beads per well. The plate was incubated on an orbital shaker for 20 min and then for 10 min without agitation at rt. SPA signal for tritium beta radiation was registered on PerkinElmer Microbeta plate reader. […] The percent inhibition vs. concentration data were fit into a four-parameter model, and IC50 values were calculated from the fit as the concentrations corresponding to the inflection points on the dose-response curves.

[2] = molecular target: hERG potassium ion channel (Homo sapiens (Human), UniProt Q12809); test: hERG Assay (Assay 4); format: cell-based; details: HEK293 cells stably transfected with hERG cDNA, pH 7.4, Compound at 3 μM, patch clamp, HEK 293 cells
Protocol: Compounds of the invention were tested in vitro against the hERG (human ether-a-go-go-related gene) potassium ion channel (a surrogate for IKr, the rapidly activating delayed rectifier cardiac potassium ion channel).
The buffer was HEPES-buffered physiological saline (HB-PS) solution composed of: 137 mM NaCl, 4.0 mM KCl, 1.8 mM CaCl2, 1 mM MgCl2, 10 mM HEPES, 10 mM glucose, pH adjusted to 7.4 with NaOH, and 0.3% DMSO. Chemicals used in solution preparation were purchased from Sigma-Aldrich (St. Louis, Mo.), unless otherwise noted, and were of ACS reagent grade purity or higher.
HEK (human embryonic kidney) 293 cells were stably transfected with hERG cDNA.
For the patch clamp experiment, onset and steady state inhibition of hERG potassium current was measured using a pulse pattern with fixed amplitudes (depolarization: +20 mV for 2 s; repolarization: −50 mV for 2 s) repeated at 10 s intervals from a holding potential of −80 mV. Peak tail current was measured during the 2 s step to −50 mV. A steady state was maintained for at least 30 seconds before applying compound or positive control (cisapride). Peak tail currents were measured until a new steady state was achieved.
Data acquisition and analyses were performed using the suite of pCLAMP® (ver. 8.2) programs (MDS Analytical Technologies, Sunnyvale, Calif.). Steady state was defined by the limiting constant rate of change with time (linear time dependence). The steady state before and after each compound application was used to calculate the percentage of current inhibited at each concentration. Concentration-response data were fit to an equation of the following form: % Inhibition={1−1/[1+([Test]/IC50)N]}*100
where [Test] was the compound concentration, IC50 was the compound concentration at half-maximal inhibition, N was the Hill coefficient, and % Inhibition was the percentage of current inhibited at each compound concentration. Nonlinear least squares fits were solved with the Solver add-in for Excel 2003 (Microsoft, WA) and the IC50 was calculated.

[3] = molecular target: full-length RORγt in Jurkat cells (Homo sapiens (Human), UniProt P51449)
Protocol: ROR ? t 5×RORE Assay in Jurkat Cells (Assay 2)
Compounds of the present invention were tested for ROR ? inverse agonist activity in a cell-based, transcriptional activity assay. […] Luciferase activity in the conditioned supernatants was determined with NanoGlo® assay reagents (Promega, Cat.# N1130).

[4] = system: IL-17A production; test: Human Whole Blood Assay (Assay 3); format: cell-based; details: IL-17A secretion, CytoStim, 48 h, 50% blood/media
Protocol: Human Whole Blood Assay (Assay 3)
Compounds of the invention were tested in the human whole blood assay to measure their effects on IL-17A production as determined by cytokine secretion into 50% blood/media supernatant. Mixtures of sodium heparinized whole blood (isolated from healthy human donors) and the T cell activator CytoStim, in the presence or absence of compound, were plated in sterilized, tissue culture-treated 24-well plates. Specifically, the mixtures in each well were as follows: (1) 500 μL of whole blood, (2) 250 μL of compound diluted into RPMI-1640 media containing 10% HyClone™ FCS (Thermo Fisher Scientific, Waltham, Mass.), Gibco® Pen/Strep and Gibco® NEAA (Life Technologies, Grand Island, N.Y.), and (3) 250 μL of CytoStim (Miltenyi Biotech, Germany) diluted to a final concentration of 10 μL/mL in complete cell culture medium.
IL-17A cytokine expression was determined using 25 μL of the transferred supernatant diluted with 25 μL of Diluent 43 from the Human IL-17A V-PLEX™ kit (cat. # K151RFD-4, Meso Scale Discovery, Rockville, Md.). The assay was performed according to the manufacturer's instructions using included reagents. The IL-17A V-PLEX™ plates were read using the Meso Scale Discovery Imager (Model 1200).

[5] = cell-free competition with 25-hydroxy [26,27-3H]-cholesterol

hERG potassium ion channel, sequence (Q12809 whole entry): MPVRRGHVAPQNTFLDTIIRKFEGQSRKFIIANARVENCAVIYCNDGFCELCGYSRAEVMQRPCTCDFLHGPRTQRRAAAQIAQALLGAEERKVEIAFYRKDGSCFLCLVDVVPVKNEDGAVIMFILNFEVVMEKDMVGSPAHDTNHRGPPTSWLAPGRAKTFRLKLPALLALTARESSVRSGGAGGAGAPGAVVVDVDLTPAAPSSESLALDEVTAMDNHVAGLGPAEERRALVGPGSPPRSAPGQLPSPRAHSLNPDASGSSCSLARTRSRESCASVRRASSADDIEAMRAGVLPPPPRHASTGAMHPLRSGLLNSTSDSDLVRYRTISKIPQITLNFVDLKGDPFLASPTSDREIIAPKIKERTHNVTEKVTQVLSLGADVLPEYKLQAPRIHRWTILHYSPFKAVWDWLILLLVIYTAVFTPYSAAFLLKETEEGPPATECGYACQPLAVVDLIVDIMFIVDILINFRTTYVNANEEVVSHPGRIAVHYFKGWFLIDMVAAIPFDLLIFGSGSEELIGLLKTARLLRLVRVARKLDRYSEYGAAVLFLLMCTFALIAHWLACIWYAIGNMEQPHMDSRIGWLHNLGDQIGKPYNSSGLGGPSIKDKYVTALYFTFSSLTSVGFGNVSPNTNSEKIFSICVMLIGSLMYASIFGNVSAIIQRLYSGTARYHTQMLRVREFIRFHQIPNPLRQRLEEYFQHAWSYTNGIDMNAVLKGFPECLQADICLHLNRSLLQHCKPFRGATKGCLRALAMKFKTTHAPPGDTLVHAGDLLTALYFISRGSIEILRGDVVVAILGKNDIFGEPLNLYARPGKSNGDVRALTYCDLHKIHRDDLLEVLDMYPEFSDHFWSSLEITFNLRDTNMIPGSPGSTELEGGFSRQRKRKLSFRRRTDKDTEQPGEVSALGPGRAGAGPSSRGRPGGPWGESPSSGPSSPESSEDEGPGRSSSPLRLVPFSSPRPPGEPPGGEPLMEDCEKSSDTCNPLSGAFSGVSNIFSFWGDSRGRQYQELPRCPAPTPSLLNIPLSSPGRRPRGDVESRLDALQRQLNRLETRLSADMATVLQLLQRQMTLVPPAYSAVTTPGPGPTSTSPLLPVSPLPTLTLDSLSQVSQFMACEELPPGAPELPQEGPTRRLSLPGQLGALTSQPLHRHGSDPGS
recombinant RORγ Ligand Binding Domain (LBD) protein, sequence (P51449 269-508): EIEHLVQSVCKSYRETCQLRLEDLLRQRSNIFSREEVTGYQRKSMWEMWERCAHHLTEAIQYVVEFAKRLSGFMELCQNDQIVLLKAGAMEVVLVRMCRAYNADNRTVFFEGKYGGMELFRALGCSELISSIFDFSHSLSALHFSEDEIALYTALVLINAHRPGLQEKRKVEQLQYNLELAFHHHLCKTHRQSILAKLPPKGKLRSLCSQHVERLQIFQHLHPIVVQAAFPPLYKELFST
full-length RORγt in Jurkat cells, sequence (P51449 other isoform, or with tags, fused parts or gaps): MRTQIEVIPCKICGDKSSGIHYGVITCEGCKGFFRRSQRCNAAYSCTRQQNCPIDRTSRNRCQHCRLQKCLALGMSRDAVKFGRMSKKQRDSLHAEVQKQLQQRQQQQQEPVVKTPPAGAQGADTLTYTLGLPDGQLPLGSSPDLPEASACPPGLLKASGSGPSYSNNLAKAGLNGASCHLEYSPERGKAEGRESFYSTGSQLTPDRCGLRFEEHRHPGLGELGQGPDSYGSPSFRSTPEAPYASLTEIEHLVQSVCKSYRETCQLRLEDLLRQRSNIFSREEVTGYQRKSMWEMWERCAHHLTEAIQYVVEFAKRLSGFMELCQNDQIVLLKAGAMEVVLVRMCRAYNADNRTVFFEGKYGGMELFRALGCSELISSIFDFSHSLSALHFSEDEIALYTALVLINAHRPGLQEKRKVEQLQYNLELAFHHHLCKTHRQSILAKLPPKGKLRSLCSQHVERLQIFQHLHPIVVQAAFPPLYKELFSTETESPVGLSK

| Structure (SMILES) | Ki [1, 5] | IC50 [3] | further results |
| --- | --- | --- | --- |
| CCS(=O)(=O)c1ccc([C@H](CO)NC(=O)c2cnc3c(c2)CN(C[C@H]2CC[C@H](C(F)(F)F)CC2)[C@@H]3C)cc1 [Compound 28] | > 1000 nM | – | – |
| CC[C@H]1c2ncc(C(=O)N[C@@H](CO)c3ccc(S(=O)(=O)CC)cn3)cc2CN1C[C@H]1CC[C@H](C(F)(F)F)CC1 [Compound 33] | – | – | inhibition at 3 µM [2]: 29.1% |
| CCS(=O)(=O)c1ccc([C@@H](NC(=O)c2cnc3c(c2)CN(C[C@H]2CC[C@H](C(F)(F)F)CC2)[C@H]3C(C)C)[C@@H](C)O)cc1 (single isomer, unassigned) [Compound 42] | < 100 nM | < 100 nM | inhibition at 3 µM [2]: 63.9% |
| CC[C@H]1c2ncc(C(=O)N[C@@H](CO)c3ccc(S(=O)(=O)CC)cc3)cc2CN1C[C@@H]1CC[C@@H](C(F)(F)F)OC1 (single isomer, unassigned) [Compound 11] | < 100 nM | < 100 nM | – |
| CCS(=O)(=O)c1ccc([C@@H](CO)NC(=O)c2cnc3c(c2)CN(C[C@H]2CC[C@H](C(F)(F)F)CC2)[C@H]3C(C)C)nc1 [Compound 44] | – | – | inhibition at 3 µM [2]: 28.6% |
| CCS(=O)(=O)c1ccc([C@H](CO)NC(=O)c2cnc3c(c2)CN(C[C@H]2CC[C@H](C(F)(F)F)CO2)[C@H]3C(C)C)cc1 (single isomer, unassigned) [Compound 15] | < 100 nM | < 100 nM | – |
| CCS(=O)(=O)c1ccc([C@H](NC(=O)c2cnc3c(c2)CN(C[C@H]2CC[C@H](C(F)(F)F)CC2)[C@H]3C(C)C)[C@H](C)O)cc1 (single isomer, unassigned) [Compound 39] | < 100 nM | < 100 nM | inhibition at 3 µM [2]: 32.7% |
| CCS(=O)(=O)c1ccc([C@H](CO)NC(=O)c2cnc3c(c2)CN(C[C@H]2CC[C@H](C(F)(F)F)CC2)C3C(F)(F)F)cc1 (some centres unmarked) [Compound 23] | < 100 nM | – | – |
| CCS(=O)(=O)c1ccc([C@H](CO)NC(=O)c2cnc3c(c2)CN(C[C@@H]2CC[C@@H](C(F)(F)F)CO2)[C@H]3C(C)C)cc1 [Compound 14] | < 100 nM | < 100 nM | – |
| CCS(=O)(=O)c1ccc([C@H](CO)NC(=O)c2cnc3c(c2)CN(C[C@H]2CC[C@H](C(F)(F)F)CC2)[C@H]3C)cc1 [Compound 26] | < 100 nM | – | – |
| CCS(=O)(=O)c1ccc([C@H](CO)NC(=O)c2cnc3c(c2)CN(C[C@@H]2CC[C@H](C(F)(F)F)CO2)[C@H]3C(C)C)cc1 (single isomer, unassigned) [Compound 18] | < 100 nM | > 1000 nM | – |
| CCO[C@H]1CC[C@H](CN2Cc3cc(C(=O)N[C@@H](CO)c4ccc(S(=O)(=O)CC)cc4)cnc3[C@@H]2C(C)C)CC1 [Compound 43] | < 100 nM | – | – |
| CCS(=O)(=O)c1ccc([C@H](CO)NC(=O)c2cnc3c(c2)CN(C[C@H]2CC[C@H](C(F)(F)F)CC2)[C@H]3C(C)C)cc1 [Compound 46, (S)—N—((R)-1-(4-(ethylsulfonyl)phenyl)-2-hydroxyethyl)-7-isopropyl-6-((trans-4-(trifluoromethyl)cyclohexyl)methyl)-6,7-dihydro-5H-pyrrolo[3,4-b]pyridine-3-carboxamide] | < 100 nM | – | inhibition at 3 µM [2]: 44.3% |
| CCS(=O)(=O)c1ccc([C@H](CO)NC(=O)c2cnc3c(c2)CN(CC(F)(F)F)[C@H]3Cc2ccccc2)cc1 [Compound 22] | < 100 nM | – | – |
| CC[C@H]1c2ncc(C(=O)N[C@@H](CO)c3ccc(S(C)(=O)=O)cc3)cc2CN1C[C@H]1CC[C@H](C(F)(F)F)CC1 [Compound 24] | < 100 nM | < 100 nM | – |
| CCS(=O)(=O)c1ccc([C@@H](NC(=O)c2cnc3c(c2)CN(C[C@H]2CC[C@H](C(F)(F)F)CC2)[C@H]3C(C)C)[C@@H](C)O)cc1 [Compound 29] | 100 to 1000 nM | – | – |
| CC[C@H]1c2ncc(C(=O)N[C@@H](CO)c3ccc(S(=O)(=O)CC)cc3)cc2CN1C[C@H]1CC[C@H](C(F)(F)F)CC1 [Compound 41, (S)-7-ethyl-N—((R)-1-(4-(ethylsulfonyl)phenyl)-2-hydroxyethyl)-6-((trans-4-(trifluoromethyl)cyclohexyl)methyl)-6,7-dihydro-5H-pyrrolo[3,4-b]pyridine-3-carboxamide] | – | – | inhibition at 3 µM [2]: 7.7% |
| CCS(=O)(=O)c1ccc([C@H](CO)NC(=O)c2cnc3c(c2)CN(C[C@H]2CC[C@@H](C(F)(F)F)CO2)[C@H]3C(C)C)cc1 (single isomer, unassigned) [Compound 21] | < 100 nM | > 1000 nM | – |
| CCS(=O)(=O)c1ccc([C@H](CO)NC(=O)c2cnc3c(c2)CN(C[C@H]2CC[C@H](C(F)(F)F)OC2)[C@H]3C(C)C)nc1 [Compound 4] | – | < 100 nM | Ki [1]: < 100 nM; IC50 [4]: < 100 nM |
| CC[C@H]1c2ncc(C(=O)N[C@@H](CO)c3ccc(S(=O)(=O)CC)cc3)cc2CN1C[C@H]1CC[C@H](C(F)(F)F)OC1 (single isomer, unassigned) [Compound 10] | < 100 nM | < 100 nM | – |
| CCS(=O)(=O)c1ccc([C@H](CO)NC(=O)c2cnc3c(c2)CN(C[C@@H]2CC[C@@H](C(F)(F)F)OC2)[C@H]3C(C)C)nc1 [Compound 1] | < 100 nM | < 100 nM | IC50 [4]: < 100 nM |
| CCS(=O)(=O)c1ccc([C@H](CO)NC(=O)c2cnc3c(c2)CN(C[C@H]2CC[C@H](C(F)(F)F)CC2)[C@H]3C2CCOCC2)cc1 [Compound 31] | < 100 nM | – | – |
| CCS(=O)(=O)c1ccc([C@H](CO)NC(=O)c2cnc3c(c2)CN(C[C@@H]2CC[C@@H](C(F)(F)F)OC2)[C@H]3C(C)C)cc1 [Compound 2] | < 100 nM | < 100 nM | – |
| CCS(=O)(=O)c1ccc([C@@H](NC(=O)c2cnc3c(c2)CN(C[C@H]2CC[C@H](C(F)(F)F)CC2)[C@H]3C(C)C)[C@@H](C)O)cc1 [Compound 30] | 100 to 1000 nM | – | – |
| CCS(=O)(=O)c1ccc([C@@H](CO)NC(=O)c2cnc3c(c2)CN(C[C@H]2CC[C@H](C(F)(F)F)CC2)[C@H]3C(C)C)cc1 [Compound 47] | < 100 nM | – | – |
| CCS(=O)(=O)c1ccc([C@H](CO)NC(=O)c2cnc3c(c2)CN(CC(F)(F)F)[C@@H]3Cc2ccccc2)cc1 [Compound 19] | < 100 nM | – | – |
| CCS(=O)(=O)c1ccc([C@H](CO)NC(=O)c2cnc3c(c2)CN(C)[C@@H]3Cc2ccccc2)cc1 (single isomer, unassigned) [Compound 34] | 100 to 1000 nM | – | – |
| CCS(=O)(=O)c1ccc([C@H](CO)NC(=O)c2cnc3c(c2)CN(C[C@H]2CC[C@H](C(F)(F)F)CC2)[C@H]3CC2CCOCC2)cc1 [Compound 27] | < 100 nM | – | – |
| CCS(=O)(=O)c1ccc([C@H](CO)NC(=O)c2cnc3c(c2)CN(C[C@H]2CC[C@H](C(F)(F)F)CC2)[C@H]3Cc2ccccc2)cc1 [Compound 37] | < 100 nM | – | – |
| CCS(=O)(=O)c1ccc(C(C)(CO)NC(=O)c2cnc3c(c2)CN(C[C@H]2CC[C@H](C(F)(F)F)CC2)[C@H]3C(C)C)cc1 (some centres unmarked) [Compound 7] | < 100 nM | – | – |

Reference: US9796710B2, “Dihydropyrrolopyridine inhibitors of ROR-gamma” (Vitae Pharmaceuticals, Inc., priority 2014, dated 2017)
